Data as given in patent US10314825B2, “Agent for treatment of PBC” (KOWA COMPANY, LTD., priority 2017, dated 2019).

Tests used:
Assay type in all cases: in vivo, human
[1] = test system: patients with dyslipidemia showing a high level of triglyceride (TG); assay: Changes in total bilirubin levels after 12 weeks, clinical trial data (Example 1); conditions: for total bilirubin level, Rate of change (LSmean): 12 weeks vs baseline
Description: By using data (1965 cases in total) obtained in a clinical trial (8 tests with an administration period of 12 weeks or more) of Compound A, which had been performed for patients with dyslipidemia showing a high level of triglyceride (TG), the effects of Compound A for ALP and total bilirubin were investigated. Compound A was administered at a dose of 0.05 to 0.4 mg per day to Compound A group. […] Each compound was administered to Compound A group and a control group for 12 weeks, and changes in the levels of ALP before and after the administration are shown in Table 1 and FIG. 1, and changes in the levels of total bilirubin before and after the administration are shown in Table 2 and FIG. 2. Note that comparisons between the groups were investigated by using covariance analysis with baseline levels used as covariates.

[2] = test system: patients with dyslipidemia showing a high level of TG being treated with ursodeoxycholic acid; assay: Changes in ALP levels after 12 weeks in patients being treated with ursodeoxycholic acid (Example 2); conditions: 0.05 to 0.4 mg per day
Description: (§1) Data of patients being treated with ursodeoxycholic acid (15 cases in total) were extracted from the data obtained in a clinical trial (8 tests with an administration period of 12 weeks or more) of Compound A, which had been performed for patients with dyslipidemia showing a high level of TG, the effects of Compound A for the ALP and the total bilirubin were investigated. Compound A was administered at a dose of 0.05 to 0.4 mg per day to Compound A group. Further, placebo was administered to a control group. Each compound was administered to Compound A group and a control group for 12 weeks, and changes in the levels of ALP before and after the administration are shown in Table 3 and FIG. 3, and changes in the levels of total bilirubin before and after the administration are shown in Table 4 and FIG. 4. Note that comparisons between the groups were investigated by using covariance analysis with baseline levels used as covariates.

[3] = test system: patients with dyslipidemia showing a high level of TG being treated with ursodeoxycholic acid; assay: Changes in total bilirubin levels after 12 weeks in patients being treated with ursodeoxycholic acid (Example 2); conditions: 0.05 to 0.4 mg per day
Description: as §1

[4] = test system: patients with dyslipidemia showing a high level of triglyceride (TG); assay: Changes in ALP levels after 12 weeks, clinical trial data (Example 1); conditions: for ALP level, Rate of change (LSmean): 12 weeks vs baseline
Description: Compound A was administered at a dose of 0.05 to 0.4 mg per day to Compound A group. […] Note that comparisons between the groups were investigated by using covariance analysis with baseline levels used as covariates.

[5] = 0.05 to 0.4 mg per day, 12 weeks
[6] = 100 mg/day micronized fenofibrate capsule formulation
[7] = 106.6 mg/day solid dispersion fenofibrate tablet

Row | SMILES | effect on level of total bilirubin as compared with placebo [1, 5] | effect on level of ALP [2] | effect on level of total bilirubin [3] | effect on level of ALP as compared with placebo [4, 5] | effect on level of ALP compared with fenofibrate at the maximum clinical dose (200 mg per day) ([4]; dose of 0.1 mg or more, 12 weeks) | total bilirubin level, Rate of change (LSmean) [1, 6] | total bilirubin level, 12 Weeks ([1]; 100 mg/day micronized fenofibrate capsule formulation, 12 weeks, baseline 0.8) [mg/dL] | total bilirubin level, Rate of change (LSmean) [1, 7] | total bilirubin level, 12 Weeks ([1]; 106.6 mg/day solid dispersion fenofibrate tablet, 12 weeks, baseline 0.8) [mg/dL] | total bilirubin level, Rate of change (LSmean) ([1]; 200 mg/day micronized fenofibrate capsule formulation) | total bilirubin level, 12 Weeks ([1]; 200 mg/day micronized fenofibrate capsule formulation, 12 weeks, baseline 0.9) [mg/dL] | ALP level, Rate of change (LSmean) [4, 6] | ALP level, 12 Weeks ([4]; 100 mg/day micronized fenofibrate capsule formulation, 12 weeks, baseline 226.3) [IU/L] | ALP level, Rate of change (LSmean) [4, 7] | ALP level, 12 Weeks ([4]; 106.6 mg/day solid dispersion fenofibrate tablet, 12 weeks, baseline 235.3) [IU/L] | ALP level, 12 Weeks ([4]; 200 mg/day micronized fenofibrate capsule formulation, 12 weeks, baseline 222.5) [IU/L]
1 | CC[C@@H](Oc1cccc(CN(CCCOc2ccc(OC)cc2)c2nc3ccccc3o2)c1)C(=O)O [Compound A, (R)-2-[3-[[N-(benzoxazol-2-yl)-N-3-(4-methoxyphenoxy)propyl]aminomethyl]phenoxy] butyric acid] | decreases dose-dependently | decreases the levels of ALP and total bilirubin | decreases the levels of ALP and total bilirubin | decreases dose-dependently | decreases the level of ALP more strongly than the fenofibrate | – | – | – | – | – | – | – | – | – | – | –
2 | CC(C)OC(=O)C(C)(C)Oc1ccc(C(=O)c2ccc(Cl)cc2)cc1 [fenofibrate] | – | – | – | – | – | −5.2 | 0.7 | −4.2 | 0.7 | −9.3 | 0.7 | −11.1 | 198.7 | −14.7 | 198.8 | 182.5
